{
  "source": "patent US20130064815A1",
  "about": "“INDUCING APOPTOSIS IN QUIESCENT CELLS” (THE TRUSTEES OF PRINCETON UNIVERSITY, priority 2011, published 2013)",
  "key": {"[1]": {"system": "intracellular reduced glutathione", "assay": "intracellular reduced glutathione by monochlorobimane flow cytometry", "assay_type": "cell-based, human", "conditions": "serum-starved fibroblasts after DHEA treatment", "experimental": "It was tested whether the increase in glutathione reductase activity in serum-starved fibroblasts was associated with elevated levels of reduced glutathione. 7 dSS fibroblasts were focused on because they had the highest activity of the four enzymes in the NADPH production pathway. Flow cytometry was used to monitor the levels of glutathione in proliferating and 7 dSS fibroblasts with monochlorobimane (MCB), a compound that forms blue fluorescent adducts when it reacts with intracellular reduced glutathione (Sebastia et al., “Evaluation of fluorescent dyes for measuring intracellular glutathione content in primary cultures of human neurons and beuroblastoma SH-SY5Y, Cytometry A 51, 16-25, 2003, which is incorporated herein by reference as if fully set forth). […] The results are consistent with a model in which the NADPH production program activated in the serum-starved fibroblasts contributes to a larger pool of reduced glutathione.\nIt was expected that the reduction in NADPH levels that resulted from DHEA treatment would result in lower activity of glutathione reductase and thus a decrease in the levels of reduced glutathione. […] The depletion of glutathione in response to DHEA could be an important part of the apoptotic pathway. […]"}, "colon cancer": {"system": "colon cancer", "conditions": "in vivo; cited from earlier work"}, "[2]": {"system": "skin papillomas and carcinomas", "conditions": "topical 7,12-dimethylbenz(a)anthracene (DMBA), mice; cited from earlier work"}, "[3]": {"system": "low-grade cervical lesions", "conditions": "12 women with low-grade dysplasia; intravaginal; cited from earlier work"}, "oxidized proteins": {"system": "oxidized proteins", "assay": "oxidized (carbonylated) protein immunoblot after DNP derivatization", "assay_type": "cell-based, human", "conditions": "DHEA treatment", "description": "Glutathione plays an important role in ROS scavenging, both by acting as a cofactor for glutathione peroxidase and via direct interaction with ROS (Jones et al., “Kinetics of superoxide scavenging by glutathione: an evaluation of its role in the removal of mitochrondrial superoxide, Biochem Soc Trans 31, 1337-1339, 2003, which is incorporated herein by reference as if fully set forth). The effects of DHEA treatment on the levels of oxidized proteins were monitored in proliferating and 7 dSS fibroblasts (FIG. 20). Oxidized, carbonylated proteins were derivatized with […] and monitored with an anti-2,4, dinitrophenol antibody. […] Thus, the 7 dSS fibroblasts rely on DHEA-sensitive pathways to maintain low levels of oxidized protein.\nIn addition to its role in providing amino acids and energy under starvation conditions, autophagy is involved in maintenance of cellular homeostasis and resistance to tumorigenesis through degradation of old or damaged proteins and entire organelles. […] To monitor the extent of protein oxidation in proliferating and contact-inhibited fibroblasts, the protein carbonyl groups were derivatized using 2,4-dinitrophenylhydrazine (DNP), and monitored using immunoblotting with an antibody that recognizes the covalently added DNP. […]"}, "[4]": {"system": "neoplasms, lymphoblastic lymphoma", "conditions": "p53-deficient mouse; cited from earlier work"}, "P and CI14 fibroblasts": {"system": "P and CI14 fibroblasts", "assay": "PPP inhibition and PI live/dead analysis by flow cytometry", "assay_type": "cell-based, human", "conditions": "CI14 vs proliferating fibroblasts; 100 μM and 250 μM, four days; p<0.01", "experimental": "The function of the PPP in quiescent and proliferating fibroblasts was tested. Proliferating or CI14 fibroblasts were incubated with DHEA, a small molecule inhibitor of the PPP for four days. The fraction of cells that were dead was monitored with propidium iodide (PI) labeling followed by flow cytometry.\nPPP inhibition and PI live/dead analysis: P and CI14 fibroblasts were treated with dehydroepiandrosterone dissolved in ethanol or dimethylsufoxide (0.1% vol/vol) for four days. On the fourth day of treatment with the inhibitor, cells were trypsinized and collected into conditioned media. Cells were then centrifuged for 5 min at 1000 rpm. The supernatant was aspirated and cells were taken up in PBS with 1 μg/ml PI (VWR, West Chester, Pa.). Cells were kept on ice and immediately analyzed by flow cytometry using a BD LSRII multi-laser analyzer (BD Biosciences, San Jose, Calif.). PI was excited at 488 nm and emitted fluorescence was collected through a 610/20 bandpass filter. At least 40,000 cells were collected and analyzed with FACSDiVa software (BD Biosciences, San Jose, Calif.). PI negative cells were counted as live cells and PI positive cells were counted as dead cells."}},
  "data": [
    {"smiles": "C[C@]12CC[C@H](O)CC1=CC[C@@H]1[C@@H]2CC[C@]2(C)C(=O)CC[C@@H]12", "note": "[DHEA, dehydroepiandrosterone]", "values": [
      {"measurement": "intracellular GSH pools", "setting": "[1]", "value": "smaller pools of intracellular GSH"},
      {"measurement": "effect on colon cancer", "setting": "colon cancer", "value": "chemopreventative effect"},
      {"measurement": "development of skin papillomas and carcinomas", "setting": "[2]", "value": "reduced"},
      {"measurement": "regression of low-grade cervical lesions", "setting": "[3]", "value": "may promote regression of low-grade cervical lesions"},
      {"measurement": "safety", "setting": "[3]", "value": "safe to administer"},
      {"measurement": "oxidized protein levels", "setting": "oxidized proteins; 7 dSS fibroblasts", "value": "significantly increased"},
      {"measurement": "oxidized protein levels", "setting": "oxidized proteins; proliferating fibroblasts", "value": "little effect"},
      {"measurement": "death due to neoplasms", "setting": "[4]", "value": "delay death due to neoplasms"},
      {"measurement": "cell death (PI labeling)", "setting": "P and CI14 fibroblasts", "value": "statistically significant increase in cell death"}
    ]}
  ]
}
